From patent publication USRE38329E1, “Chelated complexes of paramagnetic metals with low toxicity” (Bracco Imaging S.p.A., priority 1997, dated 2003)

Test system: mouse
Assay: DL50 after intracerebroventricular administration to the mouse (neurotoxicity / molecular toxicity)
Format: in vivo
Excerpt: DL50 values after intracerebral administration (intracisternal, intracerebroventricular), for example in the mouse and in the rat, can therefore be taken as a highly sensitive index of the molecular toxicity of the contrast agent (Toxicology Letters, cited ref.). In particular, the intracerebroventricular administration seems to be the most sensitive to discriminate the neurotoxicity of the compounds (Proceedings of the 10th National Congress of the Italian Toxicology Society, Pavia, September 21-24th, 100, 1994).
The present invention relates to chelated complexes of paramagnetic metals characterized by an extremely favourable neurotoxicity profile. […] The compound described in example 1 (gadolinium complex of 10-[2-[[2-(2-hydroxyethoxy)ethyl]amino]-2-oxoethyl]-α,α′,α″-tris(hydroxymethyl)-1,4,7,10-tetraazacyclododecane-1,4,7-triacetic) acid has, for example, a DL50 of 0.23 mmol/kg after intracerebroventricular administration to the mouse. The compounds described in example 2 (gadolinium complex of α,α′,α″-tris (hydroxymethyl)-10-(2-hydroxypropyl)-1,4,7,10-tetraazacyclododecane-1,4,7-triacetic acid) and in Example 4 (Na^+Gd[THM-DOTA]^−) have a very good tolerability as well, with a DL50, after intracerebroventricular administration to the mouse, of 0.170 and 0.150 mmol/kg, respectively; the corresponding value for Gd-DOTA being 0.064 mmol/kg.

| Compound | DL50 after intracerebroventricular administration to the mouse |
| --- | --- |
| O=C(CN1CCN(C(CO)C(=O)[O-])CCN(C(CO)C(=O)[O-])CCN(C(CO)C(=O)[O-])CC1)NCCOCCO.[Gd+3] (stereo not drawn) [Example 1, Gadolinium complex of 10-[2-[[2-(2-hydroxyethoxy)ethyl]amino]-2-oxoethyl]-α,α′,α″-tris(hydroxymethyl)-1,4,7,10-tetraazacyclododecane-1,4,7-triacetic acid] | 0.23 mmol/kg |
| O=C([O-])CN1C[C@@H](CO)N(CC(=O)[O-])C[C@@H](CO)N(CC(=O)[O-])C[C@@H](CO)N(CC(=O)[O-])C[C@H]1CO.[Gd+3].[Na+] (relative stereo) [Example 4, Gadolinium complex of [2S-(2R*,5R*,8R*,11R*)]-2,5,8,11-tetra(hydroxymethyl)-1,4,7,10-tetraazacyclododecane-1,4,7,10-tetraacetic acid sodium salt (1:1)] | 0.150 mmol/kg |
| O=C([O-])CN1CCN(CC(=O)[O-])CCN(CC(=O)[O-])CCN(CC(=O)[O-])CC1.[Gd+3] [Gd-DOTA, reference compound] | 0.064 mmol/kg |
